# Assay results: paper PMC11434354, “Metabolic and Pharmacokinetic Profiling Studies of N, N-Dimethylaniline-Heliamine in Rats by UHPLC-Q-Orbitrap MS/MS” (Molecules, 2024)
# Experiments:
# [1] = Metabolite identification of DH in rat plasma, urine, feces and rat liver microsomes by UHPLC-Q-Orbitrap MS/MS; assay type: in vivo; details: rat plasma
# Method: For the analysis of DH metabolites, the same UHPLC-MS/MS system was used for the plasma analysis, and the ACQUIT UHPLC BEH C18 column was also utilized. Mobile phase A consisted of 0.1% formic acid in water (v/v), while mobile phase B comprised acetonitrile. The flow rate was maintained at 0.2 mL/min, with a 10 µL injection volume. The column temperature was kept constant at 35 °C, and the RS autosampler temperature was maintained at 10 °C. The gradient elution was as follows: 0–3 min(5%B), 3–11 min (7%B), 11–18 min (7%B), and 18–45 min (30%B). A full MS/dd MS^2 mode in positive heated electrospray ionization (HESI) with 140,000 (for MS) and 17,500 (for MS/MS) resolutions was used for the Q–Exactive Plus Orbitrap MS. The compounds identified in full MS/dd MS^2 mode will be scanned using PRM scanning. The following MS parameters were employed: AGC target, 1 × 10^6; Maximum IT, 100 ms; Spray voltage, 3.2 kV; Capillary temp, 320 °C; S-lens RF level, 55; HCD Energy 20, 40, and 60.
# Rat liver microsomes were used for in vitro experiments to study DH metabolism in rats more quickly and easily. After that, the cofactors of phases I and II were added to create the phase I and phase II metabolic systems. The composition of the reagent kit and the procedure can be found in our previous work.
# For the plasma study, 100 µL of plasma was obtained from rats at 0.5, 1, 2, and 4 h after medicine administration. Then, 300 µL of acetonitrile was added to the above plasma, vortexed for 1 min, and centrifuged for 7 min. The supernatant was collected, and the remaining liquid was dried using nitrogen gas at 40 °C. The blow-dried samples were re-dissolved in 100 µL methanol, sonicated for 1 min, and centrifuged for 7 min.
# Urine was collected during the period spanning from 0 to 48 h following administration, with each period’s combined urine comprising 10 mL and 30 mL of acetonitrile added thereto. After a 10 min interval of sonication, the urine samples were transferred into 1.5 mL centrifuge tubes, vortexed for 1 min, and then centrifuged at a speed of 14,000 rpm for 10 min. Successively, the supernatant was merged and subjected to drying by nitrogen gas at 40 °C. The blow-dried samples were re-dissolved in 100 µL of methanol, sonicated for 1 min, and centrifuged for 7 min.
# For the fecal study, feces were collected within 0–48 h following administration, dried to powder at room temperature in a shaded area, and combined to yield 8 mL per period, to which 40 mL of acetonitrile was added. Following 30 min of sonication, the samples were transferred to 1.5 mL centrifuge tubes and centrifuged at 14,000 rpm for 10 min. The supernatant was collected and dried with nitrogen at 40 °C before analysis via UHPLC-MS/MS. Before analysis, the blow-dried samples were re-dissolved in 100 µL of methanol, sonicated for 1 min, and centrifuged for 7 min.
# Compound Discovery 3.3 was used for data processing. The MS spectrometric features mainly include retention time, exact mass, peak intensity, and fragment ions. The data processing mainly included selecting spectra, aligning retention times, creating pattern traces, creating fish traces, generating expected compounds, finding expected compounds, grouping expected compounds, fish scoring, and marking background compounds. The mass tolerance is less than 5 ppm.
# [2] = Stability of DH in rat plasma samples (autosampler, −80 °C storage, room temperature, freeze–thaw); assay type: in vitro ADME; details: for Accuracy, 4 h / Accuracy, 8 h / Accuracy, 12 h: autosampler; for Accuracy, Room temper: room temperature; for Accuracy, 1 day / Accuracy, 7 days / Accuracy, 15 days: stored at −80 °C; for Accuracy, Thaw: three freeze–thaw cycles
# Method: Three concentrations were used to test the stability of plasma samples in a variety of circumstances. […] Its accuracy range was 97.46–109.44%. When samples were stored at −80 °C, the accuracy of the samples ranged from 99.44% to 109.22% at three concentrations on days 1, 7, and 15. The prepared QC samples were placed in the autosampler and injected at 4, 8, and 12 h. The accuracy was calculated to be in the range of 103.34–110.57%. The prepared stability samples were stored at −80 °C and the accuracy range was measured from 97.37% to 104.56% after three sequential freeze–thaw cycles.
# DH was added to the blank plasma to produce concentrations of 1, 10, 100, and 500 ng/mL QC samples. Then, 10 µL DH was added to blank plasma and vortexed for 3 s. Next, 10 µL IS was added to the plasma and vortexed for 3 s, while 300 µL of acetonitrile was added to the above plasma, vortexed for 1 min, and centrifuged for 7 min. The mixture supernatant was collected and blown dry at 40 °C under nitrogen. Blow-dried samples were re-dissolved in 100 μL of 30% acetonitrile in water and centrifuged for 7 min.
# Although acetonitrile precipitates most of the protein, plasma samples contain phospholipids, metabolites, etc., that interfere with the detection of DH and IS. Specificity was mainly examined at DH and IS retention times without interference peaks in blank plasma. In addition, samples tested after administration should not show interfering peaks at the DH and IS peak times. The standard curves were made up of 8 nonzero analyte points, and the linearity was tested. The correlation of peak area (analyte/IS) with the labeled plasma concentration was plotted for regression analysis. This analyte was predicted to have a correlation coefficient (r^2) of more than 0.99 with the corresponding standard curve. The relative standard deviation (RSD) and relative error (RE) values were calculated by measuring six repeated QC samples on the same day to evaluate the intra-day precision and accuracy. Inter-day precision and accuracy were characterized by RSD and RE, respectively. The recoveries were determined by examining the ratio of the peak areas of DH before and after extraction. The matrix effect is the ratio of the peak area of DH added to plasma and DH dissolved in the solvent. The stability evaluation should guarantee that the concentration of the analyte remains unchanged throughout the sample preparation and analysis process, as well as during storage. Stability studies include long-term storage stability at −80 °C (1, 7 and 15 days); repeated freeze–thaw stability; autosampler stability; room temperature stability; and long-term storage stability of stock solutions.
# [3] = system: membrane surface Na^+–Ca^2+ exchange; set-up: method as in doi:10.13005/bpj/1892; details: decreases sarcoplasmic reticulum Ca2+ release; cited from earlier work
# [4] = system: Sarcoplasmic reticulum RyR2Ca^2+ channels; set-up: method as in doi:10.13005/bpj/1892; details: cited from earlier work
# [5] = nominal concentration 100 ng/mL
# [6] = nominal concentration 500 ng/mL
compound,measurement,setting,value
"COc1cc2c(cc1OC)C(c1ccc(N(C)C)cc1)NCC2 (stereo not shown) [DH, N, N-dimethylaniline-heliamine]",Rat and LM* (matrices in which DH or the metabolite was detected),[1],"P*, U*, F*, LM*"
same,"Accuracy, 4 h",[2]; nominal concentration 10 ng/mL,110.30%
same,"Accuracy, 8 h",[2]; nominal concentration 10 ng/mL,108.80%
same,"Accuracy, 12 h",[2]; nominal concentration 10 ng/mL,110.57%
same,"Accuracy, 4 h",[2]; [5],106.65%
same,"Accuracy, 8 h",[2]; [5],106.69%
same,"Accuracy, 12 h",[2]; [5],103.81%
same,"Accuracy, 4 h",[2]; [6],105.03%
same,"Accuracy, 8 h",[2]; [6],103.54%
same,"Accuracy, 12 h",[2]; [6],103.34%
same,time stable in rat plasma samples,[2]; kept at room temperature,at least 12 h
same,"Accuracy, Room temper",[2]; nominal concentration 10 ng/mL,109.44%
same,"Accuracy, Room temper",[2]; [5],101.36%
same,"Accuracy, Room temper",[2]; [6],97.46%
same,"Accuracy, 1 day",[2]; nominal concentration 10 ng/mL,109.12%
same,"Accuracy, 7 days",[2]; nominal concentration 10 ng/mL,108.43%
same,"Accuracy, 15 days",[2]; nominal concentration 10 ng/mL,106.68%
same,"Accuracy, 1 day",[2]; [5],103.58%
same,"Accuracy, 7 days",[2]; [5],106.23%
same,"Accuracy, 15 days",[2]; [5],101.13%
same,"Accuracy, 1 day",[2]; [6],99.17%
same,"Accuracy, 7 days",[2]; [6],105.59%
same,"Accuracy, 15 days",[2]; [6],94.99%
same,"Accuracy, Thaw",[2]; nominal concentration 10 ng/mL,100.00%
same,"Accuracy, Thaw",[2]; [5],104.56%
same,"Accuracy, Thaw",[2]; [6],97.37%
same,membrane surface Na+–Ca2+ exchange inhibition,[3],inhibitor
same,inhibition of sarcoplasmic reticulum RyR2 Ca2+ channels,[4],inhibited
